Results on 19 molecules are retold here after patent publication US20230295200A1 (REGENTS OF THE UNIVERSITY OF MICHIGAN, priority 2022, published 2023).

This assay has as its target T1, STAT6 protein (Homo sapiens, UniProt P42226).
T1 sequence (P42226 1-847): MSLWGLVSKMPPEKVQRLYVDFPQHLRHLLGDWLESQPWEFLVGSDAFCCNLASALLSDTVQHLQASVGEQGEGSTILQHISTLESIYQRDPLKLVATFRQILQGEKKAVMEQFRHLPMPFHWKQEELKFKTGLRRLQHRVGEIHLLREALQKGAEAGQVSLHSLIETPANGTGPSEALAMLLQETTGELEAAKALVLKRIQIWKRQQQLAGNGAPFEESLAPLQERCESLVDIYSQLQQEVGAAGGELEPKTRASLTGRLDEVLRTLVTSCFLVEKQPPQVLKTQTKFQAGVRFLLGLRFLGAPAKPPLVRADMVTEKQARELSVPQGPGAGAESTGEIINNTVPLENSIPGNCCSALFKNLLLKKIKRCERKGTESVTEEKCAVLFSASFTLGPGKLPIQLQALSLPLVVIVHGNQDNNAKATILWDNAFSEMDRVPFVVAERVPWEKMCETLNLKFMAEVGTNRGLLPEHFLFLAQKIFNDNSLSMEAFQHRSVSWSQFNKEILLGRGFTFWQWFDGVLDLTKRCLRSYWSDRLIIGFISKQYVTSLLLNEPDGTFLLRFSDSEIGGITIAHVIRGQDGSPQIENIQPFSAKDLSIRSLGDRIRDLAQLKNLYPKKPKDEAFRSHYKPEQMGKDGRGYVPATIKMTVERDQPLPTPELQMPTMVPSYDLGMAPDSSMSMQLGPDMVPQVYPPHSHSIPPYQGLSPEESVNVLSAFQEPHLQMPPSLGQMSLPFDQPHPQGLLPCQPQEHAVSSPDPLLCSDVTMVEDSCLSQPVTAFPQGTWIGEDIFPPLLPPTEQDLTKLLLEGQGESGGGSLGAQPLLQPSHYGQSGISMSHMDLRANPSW
The assay is described as follows: Fluorescence polarization (FP) binding assay, STAT6. The note with it: FP competition, 5 nM fluorescein-labeled tracer, 200 nM protein, PBS pH7.4; read-out: Binding STAT6. In short, it runs like this:
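Competitive FP read-out with 5 nM fluorescein-labeled tracer and 200 nM STAT5 or STAT6 protein in PBS pH 7.4 containing 0.01% BGG, 0.01% Tween-20 and 2 mM DTT. Plates were shaken 15 min, then equilibrated 1 h at room temperature; inhibition constants came from nonlinear curve fitting.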
For `CCCC[C@H](NC(=O)c1cc2cc(C(F)(F)P(=O)(O)O)ccc2s1)C(=O)N1CCC[C@H]1C(=O)N1CCO[C@H](c2ccccc2)C1` [Compound 272, (difluoro(2-(((S)-1-oxo-1-((S)-2-((R)-2-phenylmorpholine-4-carbonyl)pyrrolidin-1-yl)hexan-2-yl)carbamoyl)benzo[b]thiophen-5-yl)methyl)phosphonic acid], the Ki fell in the range of 100 to 1000 nM.

As to `O=C(N[C@@H](Cc1ccc(Br)cc1)C(=O)N1CCC[C@H]1C(=O)N1CCO[C@H](c2ccccc2)C1)c1cc2cc(C(F)(F)P(=O)(O)O)ccc2s1` [Compound 273, ((2-(((S)-3-(4-bromophenyl)-1-oxo-1-((S)-2-((R)-2-phenylmorpholine-4-carbonyl)pyrrolidin-1-yl)propan-2-yl)carbamoyl)benzo[b]thiophen-5-yl)difluoromethyl)phosphonic acid], the Ki lay within 100 to 1000 nM. `CN(C)CCC[C@H](NC(=O)c1cc2cc(C(F)(F)P(=O)(O)O)ccc2s1)C(=O)N1CCC[C@H]1C(=O)N1CCO[C@H](c2ccccc2)C1` [Compound 274, ((2-(((S)-5-(dimethylamino)-1-oxo-1-((S)-2-((R)-2-phenylmorpholine-4-carbonyl)pyrrolidin-1-yl)pentan-2-yl)carbamoyl)benzo[b]thiophen-5-yl)difluoromethyl)phosphonic acid]: the Ki was in the range of 100 to 1000 nM.

Regarding `CN(C)CC[C@H](NC(=O)c1cc2cc(C(F)(F)P(=O)(O)O)ccc2s1)C(=O)N1CCC[C@H]1C(=O)N1CCO[C@H](c2ccccc2)C1` [Compound 275, ((2-(((S)-4-(dimethylamino)-1-oxo-1-((S)-2-((R)-2-phenylmorpholine-4-carbonyl)pyrrolidin-1-yl)butan-2-yl)carbamoyl)benzo[b]thiophen-5-yl)difluoromethyl)phosphonic acid], the Ki is 100 to 1000 nM.

On to `NC(=O)CC[C@H](NC(=O)c1cc2cc(C(F)(F)P(=O)(O)O)ccc2s1)C(=O)N1CCC[C@H]1C(=O)N1CCO[C@H](c2ccccc2)C1` [Compound 276, ((2-(((S)-5-amino-1,5-dioxo-1-((S)-2-((R)-2-phenylmorpholine-4-carbonyl)pyrrolidin-1-yl)pentan-2-yl)carbamoyl)benzo[b]thiophen-5-yl)difluoromethyl)phosphonic acid], for which the Ki was in the range of 100 to 1000 nM. With `CC(C)(C)c1ccc(C[C@H](NC(=O)c2cc3cc(C(F)(F)P(=O)(O)O)ccc3s2)C(=O)N2CCC[C@H]2C(=O)N2CCO[C@H](c3ccccc3)C2)cc1` [Compound 277, ((2-(((S)-3-(4-(tert-butyl)phenyl)-1-oxo-1-((S)-2-((R)-2-phenylmorpholine-4-carbonyl)pyrrolidin-1-yl)propan-2-yl)carbamoyl)benzo[b]thiophen-5-yl)difluoromethyl)phosphonic acid], the Ki is less than 100 nM. Next, `O=C(N[C@@H](Cc1ccc(F)c(F)c1)C(=O)N1CCC[C@H]1C(=O)N1CCO[C@H](c2ccccc2)C1)c1cc2cc(C(F)(F)P(=O)(O)O)ccc2s1` [Compound 278, ((2-(((S)-3-(3,4-difluorophenyl)-1-oxo-1-((S)-2-((R)-2-phenylmorpholine-4-carbonyl)pyrrolidin-1-yl)propan-2-yl)carbamoyl)benzo[b]thiophen-5-yl)difluoromethyl)phosphonic acid]: 100 to 1000 nM. Turning to `O=C(N[C@H](C(=O)N1CCC[C@H]1C(=O)N1CCO[C@H](c2ccccc2)C1)C1CCCCC1)c1cc2cc(C(F)(F)P(=O)(O)O)ccc2s1` [Compound 279, ((2-(((S)-1-cyclohexyl-2-oxo-2-((S)-2-((R)-2-phenylmorpholine-4-carbonyl)pyrrolidin-1-yl)ethyl)carbamoyl)benzo[b]thiophen-5-yl)difluoromethyl)phosphonic acid], the Ki lay within 100 to 1000 nM. To `NCCC[C@H](NC(=O)c1cc2cc(C(F)(F)P(=O)(O)O)ccc2s1)C(=O)N1CCC[C@H]1C(=O)N1CCO[C@H](c2ccccc2)C1` [Compound 280, ((2-(((S)-5-amino-1-oxo-1-((S)-2-((R)-2-phenylmorpholine-4-carbonyl)pyrrolidin-1-yl)pentan-2-yl)carbamoyl)benzo[b]thiophen-5-yl)difluoromethyl)phosphonic acid] belongs less than 100 nM. Take `N#Cc1cccc(C[C@H](NC(=O)c2cc3cc(C(F)(F)P(=O)(O)O)ccc3s2)C(=O)N2CCC[C@H]2C(=O)N2CCO[C@H](c3ccccc3)C2)c1` [Compound 281, ((2-(((S)-3-(3-cyanophenyl)-1-oxo-1-((S)-2-((R)-2-phenylmorpholine-4-carbonyl)pyrrolidin-1-yl)propan-2-yl)carbamoyl)benzo[b]thiophen-5-yl)difluoromethyl)phosphonic acid]: the Ki is less than 100 nM. To `O=C(N[C@@H](Cc1cccc([N+](=O)[O-])c1)C(=O)N1CCC[C@H]1C(=O)N1CCO[C@H](c2ccccc2)C1)c1cc2cc(C(F)(F)P(=O)(O)O)ccc2s1` [Compound 282, (difluoro(2-(((S)-3-(3-nitrophenyl)-1-oxo-1-((S)-2-((R)-2-phenylmorpholine-4-carbonyl)pyrrolidin-1-yl)propan-2-yl)carbamoyl)benzo[b]thiophen-5-yl)methyl)phosphonic acid] belongs less than 100 nM; to `Cc1cccc(C[C@H](NC(=O)c2cc3cc(C(F)(F)P(=O)(O)O)ccc3s2)C(=O)N2CCC[C@H]2C(=O)N2CCO[C@H](c3ccccc3)C2)c1` [Compound 283, (difluoro(2-(((S)-1-oxo-1-((S)-2-((R)-2-phenylmorpholine-4-carbonyl)pyrrolidin-1-yl)-3-(m-tolyl)propan-2-yl)carbamoyl)benzo[b]thiophen-5-yl)methyl)phosphonic acid], 100 to 1000 nM.

As for `COc1ccc(C[C@H](NC(=O)c2cc3cc(C(F)(F)P(=O)(O)O)ccc3s2)C(=O)N2CCC[C@H]2C(=O)N2CCO[C@H](c3ccccc3)C2)cc1` [Compound 284, (difluoro(2-(((S)-3-(4-methoxyphenyl)-1-oxo-1-((S)-2-((R)-2-phenylmorpholine-4-carbonyl)pyrrolidin-1-yl)propan-2-yl)carbamoyl)benzo[b]thiophen-5-yl)methyl)phosphonic acid], the Ki is 100 to 1000 nM. Regarding `O=C(N[C@@H](Cc1ccc2ccccc2c1)C(=O)N1CCC[C@H]1C(=O)N1CCO[C@H](c2ccccc2)C1)c1cc2cc(C(F)(F)P(=O)(O)O)ccc2s1` [Compound 285, (difluoro(2-(((S)-3-(naphthalen-2-yl)-1-oxo-1-((S)-2-((R)-2-phenylmorpholine-4-carbonyl)pyrrolidin-1-yl)propan-2-yl)carbamoyl)benzo[b]thiophen-5-yl)methyl)phosphonic acid], the Ki is 100 to 1000 nM. Consider `O=C(N[C@@H](Cc1nc2ccccc2s1)C(=O)N1CCC[C@H]1C(=O)N1CCO[C@H](c2ccccc2)C1)c1cc2cc(C(F)(F)P(=O)(O)O)ccc2s1` [Compound 286, ((2-(((S)-3-(benzo[d]thiazol-2-yl)-1-oxo-1-((S)-2-((R)-2-phenylmorpholine-4-carbonyl)pyrrolidin-1-yl)propan-2-yl)carbamoyl)benzo[b]thiophen-5-yl)difluoromethyl)phosphonic acid], for which the Ki was 100 to 1000 nM.

Turning to `O=C(N[C@@H](Cc1cccs1)C(=O)N1CCC[C@H]1C(=O)N1CCO[C@H](c2ccccc2)C1)c1cc2cc(C(F)(F)P(=O)(O)O)ccc2s1` [Compound 287, (difluoro(2-(((S)-1-oxo-1-((S)-2-((R)-2-phenylmorpholine-4-carbonyl)pyrrolidin-1-yl)-3-(thiophen-2-yl)propan-2-yl)carbamoyl)benzo[b]thiophen-5-yl)methyl)phosphonic acid], the Ki fell in the range of 100 to 1000 nM. Next, `O=C(N[C@@H](CCc1ccccc1)C(=O)N1CCC[C@H]1C(=O)N1CCO[C@H](c2ccccc2)C1)c1cc2cc(C(F)(F)P(=O)(O)O)ccc2s1` [Compound 288, (difluoro(2-(((S)-1-oxo-4-phenyl-1-((S)-2-((R)-2-phenylmorpholine-4-carbonyl)pyrrolidin-1-yl)butan-2-yl)carbamoyl)benzo[b]thiophen-5-yl)methyl)phosphonic acid]: 100 to 1000 nM; `O=C(N[C@@H](CCCc1ccccc1)C(=O)N1CCC[C@H]1C(=O)N1CCO[C@H](c2ccccc2)C1)c1cc2cc(C(F)(F)P(=O)(O)O)ccc2s1` [Compound 289, (difluoro(2-(((S)-1-oxo-5-phenyl-1-((S)-2-((R)-2-phenylmorpholine-4-carbonyl)pyrrolidin-1-yl)pentan-2-yl)carbamoyl)benzo[b]thiophen-5-yl)methyl)phosphonic acid]: less than 100 nM. To `O=C(N[C@@H](CC1CCNCC1)C(=O)N1CCC[C@H]1C(=O)N1CCO[C@H](c2ccccc2)C1)c1cc2cc(C(F)(F)P(=O)(O)O)ccc2s1` [Compound 290, (difluoro(2-(((S)-1-oxo-1-((S)-2-((R)-2-phenylmorpholine-4-carbonyl)pyrrolidin-1-yl)-3-(piperidin-4-yl)propan-2-yl)carbamoyl)benzo[b]thiophen-5-yl)methyl)phosphonic acid] belongs 100 to 1000 nM.
